Read-outs that look alike come from different tables or passages of the source.
How the values were obtained:
[1] = target: T1, recombinant human Lp-PLA2 (Homo sapiens, UniProt Q13093); test: Recombinant human Lp-PLA2 assay (rhLp-PLA2, PED6 assay); assay type: biochemical
T1 sequence (Q13093 22-441): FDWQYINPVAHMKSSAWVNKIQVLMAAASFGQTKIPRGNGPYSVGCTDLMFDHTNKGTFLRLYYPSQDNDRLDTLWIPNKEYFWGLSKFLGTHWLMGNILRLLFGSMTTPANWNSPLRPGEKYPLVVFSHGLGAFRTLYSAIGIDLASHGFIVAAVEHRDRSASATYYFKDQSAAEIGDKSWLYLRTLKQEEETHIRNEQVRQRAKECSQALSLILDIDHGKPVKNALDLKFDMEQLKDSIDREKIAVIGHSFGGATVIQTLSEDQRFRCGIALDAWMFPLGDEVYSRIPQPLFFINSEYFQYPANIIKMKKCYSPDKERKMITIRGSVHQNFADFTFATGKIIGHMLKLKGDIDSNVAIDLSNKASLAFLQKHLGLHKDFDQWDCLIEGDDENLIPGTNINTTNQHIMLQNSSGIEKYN
Description: (1) Recombinant Human Lp-PLA2 Assay (rhLp-PLA2) (Also Referred to as “PED6” Assay)
N-((6-(2,4-dinitrophenyl)amino)-hexanoyl)-2-(4,4-difluoro-5,7-dimethyl-4-bora-3a,4a-diaza-s-indacene-3-pentanoyl)-1-hexadecanoyl-sn-glycero-3-phosphoethanolamine, triethylammonium salt (PED6) is a commercially available fluorescently-labeled phospholipid, which is commercially available from Invitrogene and Molecular Probes. There is a quenching […] and a Bodipy fluorescein (FL) group in the sn2 position. Upon cleavage with Lp-PLA2, the Bodipy FL group is liberated and then may result in an increase in fluorescence. Inhibitors of Lp-PLA2 therefore prevent this cleavage and no fluorescent increase is observed.
The PED6 assay was run as an unquenched 10 μL assay. The source plate containing the compounds to be tested was prepared by making 1:3 (by volume) serial dilution of the compounds within DMSO on 384-well microplate. Then, 0.01 μL of the compounds on compound source plate were transferred into 384 well Greiner 784076 (black) plates using ECHO liquid dispenser. 5 μL of recombinant human Lp-PLA2 enzyme (4 nM (or […]) rhLp-PLA2 in assay buffer of 50 mM HEPES, pH 7.4, 150 mM NaCl, 1 mM CHAPS) was added to each well of the plate. Plates were centrifuged for 10 sec at 500 rpm. After 30 minutes preincubation, 5 μL of substrate ([…] PED6 [from 5 mM DMSO stock] in assay buffer of 50 mM HEPES, pH 7.4, 150 mM NaCl, 1 mM CHAPS) was added to 384 well Greiner 784076 (black) plates. Plates were centrifuged for 10 sec at 500 rpm. The plate was covered to protect it from light and incubated for 20 min at room temperature. The plates were read for fluorescence intensity at ex: 480/em: 540 using ViewLux microplate imager for Envision spectrofluoroimeters pIC50 data, curve and QC analysis was conducted by using XL fit module in Excel.

Lp-PLA2 in human plasma = target: T2, Lp-PLA2 in human plasma (Homo sapiens, UniProt Q13093); test: Lp-PLA2 human plasma assay (Thio-PAF assay); assay type: biochemical; conditions: pooled human plasma; lower bounds; read-out: pIC50 values in the thio-PAF assay (converted)
T2 construct: from tissue; host or cells: pooled human plasma
T2 sequence (Q13093 22-441): T1 sequence (Q13093 22-441)
Description: (3) Lipoprotein-Associated Phospholipase A2 (Lp-PLA2) Human Plasma Assay (Also Referred to as “Thio-PAF assay”)
The human plasma assay utilizes a thioester analog of PAF (phosphatidylcholine), where hydrolysis yields to the formation of a phospholipid containing a free thiol group. The amount of thiol is quantitated continuously by reacting with CPM (7-diethylamino-3-(4′-maleimidylphenyl)-4-methylcoumarin), a maleimide which increases in fluoresence after Michael addition of thiols. This assay may detect the activity of Lp-PLA2 in human plasma, as determined by specific inhibition by Lp-PLA2 inhibitors.
The thio-PAF assay was run as a quenched 15 μL assay. Compounds source plate was prepared by making 1:3 (by volume) serial dilution of the compounds into pure DMSO on 384-well microplate. 0.01 μL of compounds on compound source plate were transferred to 384 well Greiner 784076 (black) low-volume plates by ECHO liquid dispenser. 8 μL pooled human plasma, which was previously aliquoted and frozen, was added. Plates were centrifuged for 10 sec at 500 rpm. After 30 minutes preincubation, 2 μL of substrate solution comprising 2.5 mM 2-thio-PAF [from ethanol stock], 32 μM CPM [from a DMSO stock] and 3.2 mM NEM (N-ethylmaleimide) [made fresh daily in DMSO] in assay buffer of 50 mM HEPES, pH 7.4, 150 mM NaCl, 1 mM CHAPS was added to 384 well Greiner 784076 (black) low-volume plates by BRAVO liquid handling station. After 2 mins, reaction was quenched with 5 μL of 5% aqueous trifluoroacetic acid (TFA). Plates were covered to protect from light and incubated for 40 min at room temperature. Plates were read at ex: 380/em: 485 using-Envision microplate reader. PIC50 data, curve and QC analysis were conducted by using XLFit module in Excel.

[2] = lower bounds, read-out: pIC50 values in the PED6 assay (converted)
[3] = read-out: rhLp-PLA2 (PED6 assay) (pIC50) (converted)

| Structure (SMILES) | IC50 [1, 2] | IC50 (Lp-PLA2 in human plasma) | IC50 [1, 3] |
| --- | --- | --- | --- |
| CN1c2cc(OCc3ccc(Oc4ccnc(F)c4)c(F)c3)nc(=O)n2CC1(C)C [Example E29, 7-((3-fluoro-4-((2-fluoropyridin-4-yl)oxy)benzyl)oxy)-1,2,2-trimethyl-2,3-dihydroimidazo[1,2-c]pyrimidin-5(1H)-one] | ≤ 1 nM | ≤ 100 nM | 0.2 nM |
| CC1(C)Cn2c(cc(OCc3ccc(Oc4ccc(Cl)nc4)c(F)c3)nc2=O)N1 [Example E44, 7-((4-((6-chloropyridin-3-yl)oxy)-3-fluorobenzyl)oxy)-2,2-dimethyl-2,3-dihydroimidazo[1,2-c]pyrimidin-5(1H)-one] | ≤ 1 nM | ≤ 100 nM |  |
| CN1c2cc(OCc3cc(F)c(Oc4ccc(C(F)(F)F)nc4)c(F)c3)nc(=O)n2CC1(C)C [Example E60, 7-((3,5-difluoro-4-((6-(trifluoromethyl)pyridin-3-yl)oxy)benzyl)oxy)-1,2,2-trimethyl-2,3-dihydroimidazo[1,2-c]pyrimidin-5(1H)-one] | ≤ 1 nM | ≤ 100 nM | 0.0398 nM |
| CN1c2cc(OCc3ccc(Oc4cnc(C(F)(F)F)nc4)c(F)c3)nc(=O)n2CC1(C)C [Example E43, 7-((3-fluoro-4-((2-(trifluoromethyl)pyrimidin-5-yl)oxy)benzyl)oxy)-1,2,2-trimethyl-2,3-dihydroimidazo[1,2-c]pyrimidin-5(1H)-one] | ≤ 1 nM | ≤ 100 nM | 0.0501 nM |
| CC1Cn2c(cc(OCc3ccc(Oc4cc(F)cc(C(F)(F)F)c4)c(C#N)c3)nc2=O)N1C (centres unmarked) [Example E1, 5-(((1,2-dimethyl-5-oxo-1,2,3,5-tetrahydroimidazo[1,2-c]pyrimidin-7-yl)oxy)methyl)-2-(3-fluoro-5-(trifluoromethyl)phenoxy)benzonitrile] | ≤ 1 nM | ≤ 100 nM |  |
| C[C@H]1Cn2c(cc(OCc3ccc(Oc4ccnc(C(F)(F)F)c4)c(F)c3)nc2=O)N1C [Example E10, (S)-7-((3-fluoro-4-((2-(trifluoromethyl)pyridin-4-yl)oxy)benzyl)oxy)-1,2-dimethyl-2,3-dihydroimidazo[1,2-c]pyrimidin-5(1H)-one] | ≤ 1 nM | ≤ 100 nM |  |
| CN1c2cc(OCc3ccc(F)c(Cl)c3)nc(=O)n2CC1(C)C [Example E11, 7-((3-chloro-4-fluorobenzyl)oxy)-1,2,2-trimethyl-2,3-dihydroimidazo[1,2-c]pyrimidin-5(1H)-one] | ≤ 1 nM | ≤ 100 nM |  |
| CN1c2cc(OCc3ccc(F)c(C#N)c3)nc(=O)n2CC1(C)C [Example E42, 2-fluoro-5-(((1,2,2-trimethyl-5-oxo-1,2,3,5-tetrahydroimidazo[1,2-c]pyrimidin-7-yl)oxy)methyl)benzonitrile] | ≤ 1 nM | ≤ 100 nM | 0.316 nM |
| CN1c2cc(OCc3ccc(Oc4cncc(C(F)(F)F)c4)c(F)c3)nc(=O)n2CC1(C)C [Example E26, 7-((3-fluoro-4-((5-(trifluoromethyl)pyridin-3-yl)oxy)benzyl)oxy)-1,2,2-trimethyl-2,3-dihydroimidazo[1,2-c]pyrimidin-5(1H)-one] | ≤ 1 nM | ≤ 100 nM | 0.0158 nM |
| CC1(C)Cn2c(cc(OCc3ccc(Oc4ccc(C(F)(F)F)nc4)c(F)c3)nc2=O)N1 [Example E37, 7-((3-fluoro-4-((6-(trifluoromethyl)pyridin-3-yl)oxy)benzyl)oxy)-2,2-dimethyl-2,3-dihydroimidazo[1,2-c]pyrimidin-5(1H)-one] | ≤ 1 nM | ≤ 100 nM |  |
| N#Cc1cc(COc2cc3n(c(=O)n2)CCN3C2CC2)ccc1Oc1cccc(C(F)(F)F)c1 [Example E18, 5-(((1-cyclopropyl-5-oxo-1,2,3,5-tetrahydroimidazo[1,2-c]pyrimidin-7-yl)oxy)methyl)-2-(3-(trifluoromethyl)phenoxy)benzonitrile] | ≤ 1 nM | ≤ 100 nM |  |
| CC1Cn2c(cc(OCc3ccc(F)c(F)c3)nc2=O)N1C (centres unmarked) [Example E2, 7-((3,4-difluorobenzyl)oxy)-1,2-dimethyl-2,3-dihydroimidazo[1,2-c]pyrimidin-5(1H)-one] | ≤ 10 nM | ≤ 100 nM |  |

The next lines start with the values.

| IC50 [1, 2] | IC50 (Lp-PLA2 in human plasma) | IC50 [1, 3] | Structure (SMILES) |
| --- | --- | --- | --- |
| ≤ 10 nM | ≤ 100 nM |  | [2H]C([2H])(Oc1cc2n(c(=O)n1)CC(C)(C)N2C)c1cc(F)cc(F)c1 [Example E93, 7-(dideutero(3,5-difluorobenzyl)oxy)-1,2,2-trimethyl-2,3-dihydroimidazo[1,2-c]pyrimidin-5(1H)-one] |
| ≤ 1 nM | ≤ 100 nM |  | CC1Cn2c(cc(OCc3ccc(Oc4cccc(C(F)(F)F)c4)c(C#N)c3)nc2=O)N1C (centres unmarked) [Example E71, 5-(((1,2-dimethyl-5-oxo-1,2,3,5-tetrahydroimidazo[1,2-c]pyrimidin-7-yl)oxy)methyl)-2-(3-(trifluoromethyl)phenoxy)benzonitrile] |
| ≤ 10 nM | ≤ 100 nM |  | C[C@H]1Cn2c(cc(OCc3ccc(F)c(C#N)c3)nc2=O)N1 [Example E74, (S)-2-fluoro-5-(((2-methyl-5-oxo-1,2,3,5-tetrahydroimidazo[1,2-c]pyrimidin-7-yl)oxy)methyl)benzonitrile] |
| ≤ 1 nM | ≤ 100 nM | 0.316 nM | CC(C)N1c2cc(OCc3cc(F)cc(F)c3)nc(=O)n2CC1(C)C [Example E96, 7-((3,5-difluorobenzyl)oxy)-1-isopropyl-2,2-dimethyl-2,3-dihydroimidazo[1,2-c]pyrimidin-5(1H)-one] |
| ≤ 1 nM | ≤ 100 nM |  | CC1(C)Cn2c(cc(OCc3cc(F)c(Oc4ccnc(F)c4)c(F)c3)nc2=O)N1 [Example E116, 7-((3,5-difluoro-4-((2-fluoropyridin-4-yl)oxy)benzyl)oxy)-2,2-dimethyl-2,3-dihydroimidazo[1,2-c]pyrimidin-5(1H)-one] |
| ≤ 1 nM | ≤ 100 nM | 0.794 nM | CN1c2cc(OCc3cc(F)cc(F)c3)nc(=O)n2CC1(C)C [Example E114, 7-((3,5-difluorobenzyl)oxy)-1,2,2-trimethyl-2,3-dihydroimidazo[1,2-c]pyrimidin-5(1H)-one] |
| ≤ 1 nM | ≤ 100 nM |  | CC1(C)Cn2c(cc(OCc3ccc(Oc4ccnc(Cl)c4)c(F)c3)nc2=O)N1 [Example E82, 7-((4-((2-chloropyridin-4-yl)oxy)-3-fluorobenzyl)oxy)-2,2-dimethyl-2,3-dihydroimidazo[1,2-c]pyrimidin-5(1H)-one] |
| ≤ 1 nM | ≤ 100 nM |  | CC1(C)Cn2c(cc(OCc3cc(F)c(Oc4cnc(C(F)(F)F)nc4)c(F)c3)nc2=O)N1 [Example E100, 7-((3,5-difluoro-4-((2-(trifluoromethyl)pyrimidin-5-yl)oxy)benzyl)oxy)-2,2-dimethyl-2,3-dihydroimidazo[1,2-c]pyrimidin-5(1H)-one] |

Reference: patent US9051325B2, “Bicyclic [5,6] imidazo pyrimodone compounds for use in the treatment of diseases or conditions mediated by Lp-PLA2” (GlaxoSmithKline Intellectual Property Development Limited, priority 2013, dated 2015)
